Source: PubChem BioAssay (NCI)
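The concentration for 50% growth inhibition is given as GI50. At the TGI there is no net growth.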

Legend:
Assay in all cases: NCI anticancer screen, dose series, 384-well format
SNB-75 CNS = tested on: SNB-75 CNS
CAKI-1 renal = tested on: CAKI-1 renal
SK-OV-3 ovarian = tested on: SK-OV-3 ovarian
SF-295 CNS = tested on: SF-295 CNS
NCI-H522 lung = tested on: NCI-H522 lung
SF-539 CNS = tested on: SF-539 CNS
COLO 205 colon = tested on: COLO 205 colon
RXF 393 renal = tested on: RXF 393 renal
HCT-116 colon = tested on: HCT-116 colon
SW-620 colon = tested on: SW-620 colon
HL-60(TB) leukemia = tested on: HL-60(TB) leukemia
SK-MEL-28 melanoma = tested on: SK-MEL-28 melanoma
EKVX NSCLC = tested on: EKVX NSCLC
786-0 renal = tested on: 786-0 renal
SN12C renal = tested on: SN12C renal
HCC-2998 colon = tested on: HCC-2998 colon
SF-268 CNS = tested on: SF-268 CNS
SK-MEL-5 melanoma = tested on: SK-MEL-5 melanoma
OVCAR-4 ovarian = tested on: OVCAR-4 ovarian
MDA-MB-468 breast = tested on: MDA-MB-468 breast
SNB-19 CNS = tested on: SNB-19 CNS
HOP-62 NSCLC = tested on: HOP-62 NSCLC
TK-10 renal = tested on: TK-10 renal
MDA-MB-435 melanoma = tested on: MDA-MB-435 melanoma
MCF7 breast = tested on: MCF7 breast
A498 renal = tested on: A498 renal
MALME-3M melanoma = tested on: MALME-3M melanoma
M14 melanoma = tested on: M14 melanoma
NCI/ADR-RES ovarian = tested on: NCI/ADR-RES ovarian
MOLT-4 leukemia = tested on: MOLT-4 leukemia
SR leukemia = tested on: SR leukemia
HT29 colon = tested on: HT29 colon
LOX IMVI melanoma = tested on: LOX IMVI melanoma
UACC-62 melanoma = tested on: UACC-62 melanoma
NCI-H226 lung = tested on: NCI-H226 lung
OVCAR-3 ovarian = tested on: OVCAR-3 ovarian
DU-145 prostate = tested on: DU-145 prostate
ACHN renal = tested on: ACHN renal
IGROV1 ovarian = tested on: IGROV1 ovarian
HCT-15 colon = tested on: HCT-15 colon
NCI-H23 lung = tested on: NCI-H23 lung
HS 578T breast = tested on: HS 578T breast
MDA-MB-231 breast = tested on: MDA-MB-231 breast
CCRF-CEM leukemia = tested on: CCRF-CEM leukemia
T-47D breast = tested on: T-47D breast
NCI-H322M lung = tested on: NCI-H322M lung
KM12 colon = tested on: KM12 colon
PC-3 prostate = tested on: PC-3 prostate
UACC-257 melanoma = tested on: UACC-257 melanoma
OVCAR-8 ovarian = tested on: OVCAR-8 ovarian
A549 NSCLC = tested on: A549 NSCLC
HOP-92 NSCLC = tested on: HOP-92 NSCLC
K-562 leukemia = tested on: K-562 leukemia
NCI-H460 NSCLC = tested on: NCI-H460 NSCLC
U251 glioblastoma = tested on: U251 glioblastoma
BT-549 breast = tested on: BT-549 breast
UO-31 renal = tested on: UO-31 renal
RPMI-8226 leukemia = tested on: RPMI-8226 leukemia

SMILES: Cc1ccccc1C(C(=O)NC1CCCCC1)N(C(=O)Cn1ccnc1C)c1cccc(F)c1 (stereo unspecified)
- GI50 (SNB-75 CNS): 26.8 µM
- TGI (SNB-75 CNS): > 100 µM
- GI50 (CAKI-1 renal): > 100 µM
- TGI (CAKI-1 renal): > 100 µM
- GI50 (SK-OV-3 ovarian): > 100 µM
- TGI (SK-OV-3 ovarian): > 100 µM
- GI50 (SF-295 CNS): 30 µM
- TGI (SF-295 CNS): > 100 µM
- GI50 (NCI-H522 lung): > 100 µM
- TGI (NCI-H522 lung): > 100 µM
- GI50 (SF-539 CNS): 36.2 µM
- TGI (SF-539 CNS): > 100 µM
- GI50 (COLO 205 colon): > 100 µM
- TGI (COLO 205 colon): > 100 µM
- GI50 (RXF 393 renal): 20.5 µM
- TGI (RXF 393 renal): 96.6 µM
- GI50 (HCT-116 colon): > 100 µM
- TGI (HCT-116 colon): > 100 µM
- GI50 (SW-620 colon): > 100 µM
- TGI (SW-620 colon): > 100 µM
- GI50 (HL-60(TB) leukemia): > 100 µM
- TGI (HL-60(TB) leukemia): > 100 µM
- GI50 (SK-MEL-28 melanoma): > 100 µM
- TGI (SK-MEL-28 melanoma): > 100 µM
- GI50 (EKVX NSCLC): > 100 µM
- TGI (EKVX NSCLC): > 100 µM
- GI50 ([…]-0 renal): > 100 µM
- TGI (786-0 renal): > 100 µM
- GI50 (SN12C renal): > 100 µM
- TGI (SN12C renal): > 100 µM
- GI50 (HCC-2998 colon): > 100 µM
- TGI (HCC-2998 colon): > 100 µM
- GI50 (SF-268 CNS): > 100 µM
- TGI (SF-268 CNS): > 100 µM
- GI50 (SK-MEL-5 melanoma): > 100 µM
- TGI (SK-MEL-5 melanoma): > 100 µM
- GI50 (OVCAR-4 ovarian): > 100 µM
- TGI (OVCAR-4 ovarian): > 100 µM
- GI50 (MDA-MB-468 breast): > 100 µM
- TGI (MDA-MB-468 breast): > 100 µM
- GI50 (SNB-19 CNS): > 100 µM
- TGI (SNB-19 CNS): > 100 µM
- GI50 (HOP-62 NSCLC): > 100 µM
- TGI (HOP-62 NSCLC): > 100 µM
- GI50 (TK-10 renal): 49.2 µM
- TGI (TK-10 renal): > 100 µM
- GI50 (MDA-MB-435 melanoma): > 100 µM
- TGI (MDA-MB-435 melanoma): > 100 µM
- GI50 (MCF7 breast): > 100 µM
- TGI (MCF7 breast): > 100 µM
- GI50 (A498 renal): 66.6 µM
- TGI (A498 renal): > 100 µM
- GI50 (MALME-3M melanoma): > 100 µM
- TGI (MALME-3M melanoma): > 100 µM
- GI50 (M14 melanoma): > 100 µM
- TGI (M14 melanoma): > 100 µM
- GI50 (NCI/ADR-RES ovarian): > 100 µM
- TGI (NCI/ADR-RES ovarian): > 100 µM
- GI50 (MOLT-4 leukemia): > 100 µM
- TGI (MOLT-4 leukemia): > 100 µM
- GI50 (SR leukemia): 20 µM
- TGI (SR leukemia): 86.6 µM
- GI50 (HT29 colon): > 100 µM
- TGI (HT29 colon): > 100 µM
- GI50 (LOX IMVI melanoma): 52.7 µM
- TGI (LOX IMVI melanoma): > 100 µM
- GI50 (UACC-62 melanoma): > 100 µM
- TGI (UACC-62 melanoma): > 100 µM
- GI50 (NCI-H226 lung): > 100 µM
- TGI (NCI-H226 lung): > 100 µM
- GI50 (OVCAR-3 ovarian): > 100 µM
- TGI (OVCAR-3 ovarian): > 100 µM
- GI50 (DU-145 prostate): > 100 µM
- TGI (DU-145 prostate): > 100 µM
- GI50 (ACHN renal): > 100 µM
- TGI (ACHN renal): > 100 µM
- GI50 (IGROV1 ovarian): > 100 µM
- TGI (IGROV1 ovarian): > 100 µM
- GI50 (HCT-15 colon): > 100 µM
- TGI (HCT-15 colon): > 100 µM
- GI50 (NCI-H23 lung): > 100 µM
- TGI (NCI-H23 lung): > 100 µM
- GI50 (HS 578T breast): 27.4 µM
- TGI (HS 578T breast): 83 µM
- GI50 (MDA-MB-231 breast): 51.1 µM
- TGI (MDA-MB-231 breast): > 100 µM
- GI50 (CCRF-CEM leukemia): > 100 µM
- TGI (CCRF-CEM leukemia): > 100 µM
- GI50 (T-47D breast): 24.5 µM
- TGI (T-47D breast): > 100 µM
- GI50 (NCI-H322M lung): > 100 µM
- TGI (NCI-H322M lung): > 100 µM
- GI50 (KM12 colon): > 100 µM
- TGI (KM12 colon): > 100 µM
- GI50 (PC-3 prostate): > 100 µM
- TGI (PC-3 prostate): > 100 µM
- GI50 (UACC-257 melanoma): > 100 µM
- TGI (UACC-257 melanoma): > 100 µM
- GI50 (OVCAR-8 ovarian): 75.6 µM
- TGI (OVCAR-8 ovarian): > 100 µM
- GI50 (A549 NSCLC): > 100 µM
- TGI (A549 NSCLC): > 100 µM
- GI50 (HOP-92 NSCLC): 77.4 µM
- TGI (HOP-92 NSCLC): > 100 µM
- GI50 (K-562 leukemia): > 100 µM
- TGI (K-562 leukemia): > 100 µM
- GI50 (NCI-H460 NSCLC): > 100 µM
- TGI (NCI-H460 NSCLC): > 100 µM
- GI50 (U251 glioblastoma): > 100 µM
- TGI (U251 glioblastoma): > 100 µM
- GI50 (BT-549 breast): > 100 µM
- TGI (BT-549 breast): > 100 µM
- GI50 (UO-31 renal): > 100 µM
- TGI (UO-31 renal): > 100 µM
- GI50 (RPMI-8226 leukemia): > 100 µM
- TGI (RPMI-8226 leukemia): > 100 µM
